How the values were obtained:
S. aureus MRS = target: T1, S. aureus MRS (Staphylococcus aureus, UniProt Q5HII6); test: Enzyme inhibition (S. aureus MRS), aminoacylation assay; type: biochemical
T1 construct: made in house
Procedure: 1. Enzyme Inhibition (S. aureus MRS)—Aminoacylation Assay
Compounds of the present invention may be assayed for their ability to inhibit the enzyme methionyl tRNA synthetase (MRS), using recombinant S. aureus MRS, as follows:
The reaction is started by adding 20 μl appropriately diluted pure enzyme (pre-incubated with inhibitor) to 25 μl reaction mix for 10 min at room temperature. The reaction is terminated by the addition of 100 μl 5% trichloroacetic acid, 10% glycerol. The TCA precipitate is harvested onto dry Unifilter GFC plates using a Packard Filtermate Cell Harvester. The filters are washed with 4×200 μl of 50% industrial methylated spirit, before drying. 30 μl of Microscint 20 is added to each well and plates are counted on a TopCount. (Packard 96 well counter).
Mixed E. coli MRE 600 tRNA and ATP were purchased from Boehringer-Mannheim, L-[^35 S] methionine from Amersham and other reagents from Sigma.
Pure recombinant S. aureus MRS (EP application number 97300317.1, SmithKline Beecham) was obtained using standard purification procedures. The enzyme is diluted in Dilution Buffer which consists of 10 mM Tris/Cl, 2 mM DTT pH 7.9.

E. faecalis = test: Antibacterial activity, standard MIC assay modified by inclusion of cyclodextrin; type: cell-based; details: Enterococcus faecalis; some strains of E. faecalis
Procedure: (§1) Compounds of the present invention were assayed for antibacterial activity against a range of pathogenic organisms (strains of S aureus, Spneumoniae, Efaecalis, H influenzae and M catarrhalis) in a standard MIC assay modified by the inclusion of cyclodextrin, to assist with solubility.

M Catarrhalis = test: as above; type: cell-based; details: some strains of M Catarrhalis
Procedure: as §1

S. aureus = test: as above; type: cell-based; details: Staphylococcus aureus; some strains of S. aureus
Procedure: as §1

S. pneumoniae = test: as above; type: cell-based; details: Streptococcus pneumoniae; some strains of S. pneumoniae
Procedure: as §1

H. influenzae = test: as above; type: cell-based
Procedure: as §1

T1 sequence (Q5HII6 whole entry): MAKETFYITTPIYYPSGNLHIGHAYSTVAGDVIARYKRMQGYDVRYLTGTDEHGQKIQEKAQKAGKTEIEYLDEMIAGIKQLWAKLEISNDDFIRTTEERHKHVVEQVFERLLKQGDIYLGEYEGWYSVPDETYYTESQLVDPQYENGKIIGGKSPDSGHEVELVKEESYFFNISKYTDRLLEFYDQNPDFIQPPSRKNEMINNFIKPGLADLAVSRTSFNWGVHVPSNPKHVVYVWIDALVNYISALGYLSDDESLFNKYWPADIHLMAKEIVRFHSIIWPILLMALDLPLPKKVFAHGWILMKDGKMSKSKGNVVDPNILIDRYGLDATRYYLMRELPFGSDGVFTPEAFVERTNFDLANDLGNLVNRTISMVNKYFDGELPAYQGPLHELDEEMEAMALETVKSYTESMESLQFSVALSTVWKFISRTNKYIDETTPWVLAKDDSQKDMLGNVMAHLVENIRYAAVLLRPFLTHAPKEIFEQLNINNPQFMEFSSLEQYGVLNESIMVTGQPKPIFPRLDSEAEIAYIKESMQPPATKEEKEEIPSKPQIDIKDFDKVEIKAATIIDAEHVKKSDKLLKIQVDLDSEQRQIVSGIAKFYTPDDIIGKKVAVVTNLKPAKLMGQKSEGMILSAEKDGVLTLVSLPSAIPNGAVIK

`COc1cc(CNCCCNc2nn3nccc3[nH]2)c2[nH]cc(Cl)c2c1.Cl.Cl` [Example 1, 2-[3-(3-Chloro-5-methoxy-1H-indol-7-ylmethylamino)propylamino]-1H-pyrazolo[1,5-b][1,2,4]triazole dihydrochloride] gave an IC50 (S. aureus MRS) of under 0.01 µM, an MIC (E. faecalis) of under 32 mg/L and an MIC (M Catarrhalis) of under 32 mg/L. The MIC (S. aureus) was under 32 mg/L and the MIC (S. pneumoniae) was under 32 mg/L.

`Cc1c(CNCCCNc2nn3nccc3[nH]2)sc(Br)c1Br.Cl.Cl` [Example 2, 2-[3-(4,5-Dibromo-3-methylthien-2-ylmethylamino)propylamino]-1H-pyrazolo[1,5-b][1,2,4]triazole dihydrochloride] was tested, and the IC50 (S. aureus MRS) was under 0.01 µM and the “antibacterial activity against H. influenzae” value (H. influenzae) was “active”.
